From the NIST ThermoML archive (doi:10.1021/je100603q)
Numbers after ± are expanded uncertainties.

Columns and labels:
[1] = molar enthalpy of vaporization or sublimation; details: 298.15 K; Crystal; Microcalorimetry
[2] = molar enthalpy of transition or fusion; details: 298.15 K; Crystal; Microcalorimetry

molar enthalpy [1]	molar enthalpy of transition or fusion [2]	Compound
17.5 ± 0.669 kcal/mol	–	O=C1CCSCC1 [tetrahydro-4H-thiopyran-4-one]
–	25.5 ± 0.574 kcal/mol	O=c1c2ccccc2sc2ccccc12 [thioxanthone]
